Measured values reported in US20250177329A1, “GPR120 AGONISTS FOR THE TREATMENT OF INFLAMMATORY BOWEL DISEASE” (Dompe' Farmaceutici SPA, priority 2022, published 2025).

Legend:
DSS-induced colitis = assay: Mouse model of Dextran Sodium Sulfate-induced colitis; assay type: in vivo, female C57/B16 mice
From the text: A mouse model of colitis induced by administration of Dextran Sodium Sulfate (DSS) (Wirtz S. et al. Nature Protocols; Volume: 2, Issue: 3 Pages: 541-546; 2007) was used to study the therapeutic effect of oral administration of DFL23806 on colitis.
In details, 8- to 12-week-old female C57/B16 mice were subjected to 3 oral cycles of 2.5% Dextran Sodium Sulfate (DSS) in drinking water (molecular mass, 40 kDa; MP Biomedicals), each cycle characterized by 7 days of DSS administration followed by 7 days of filter-purified water.
From day 3 of DSS administration, the mice were divided in 4 experimental groups, each receiving the treatment specified below: • Group 1: DSS (n=8)
No treatment, used as negative control. • Group 2: DSS+Vehicle (n=8)
Treated with 20% v/v Dimethyl Sulfoxide (DMSO) and 80% v/v Phosphate Buffered Saline (PBS), 0.1 M, pH 8 (Vehicle), used as a negative control. • Group 3: DSS+DFL 90 mg/kg (n=8)
Treated with DFL23806 dissolved in Vehicle, at the dosage of 90 mg/kg once a day. • Group 4: DSS+5-ASA 60 mg/kg (n=8)
Treated with 5-aminosalicylic acid (5-ASA) in Vehicle, at the dosage of 60 mg/Kg once a day, used as reference positive control.
Vehicle, DFL23806 and 5-ASA were administered daily, in the morning, by oral gavage, using plastic sterile feeding tubes 20 ga×30 mm. All mice were sacrificed on day 39.
A DAI score was established based on a scale that considers different parameters characterizing experimental colitis induction and progression (R S Walmsley et al. Gut 1998; 43:29-32).
Body weight, presence of gross blood in the feces, and stool consistency were recorded every 2 days. In details, the DAI was determined at each time point by scoring changes in weight loss (0=none, 1=1%-5%, 2=5%-10%, 3=10%-20%, 4=>20%); stool consistency (0=normal, 2=loose, 4=diarrhea); and rectal bleeding (0=normal, 2=occult bleeding, 4=gross bleeding).
Mice were sacrificed at day 39, colon were collected and colon lengths measured for each mouse, as additional parameter of intestinal inflammation.
The day of sacrifice (day 39), mice were anesthetized with 2% isoflurane and subjected to endoscopy, to confirm the inflammatory grade. The experimental endoscopy setup, denoted “Coloview system”, consisted of a miniature endoscope (scope 1.9 mm outer diameter), a xenon light source, a triple chip camera, and an air pump (all from Karl Storz, Tuttlingen, Germany) to achieve regulated inflation of the mouse colon. The endoscopic procedure was viewed on a colour monitor and a modified murine endoscopic index score of colitis severity was assigned on the basis of colon translucency (0-3 points), granular features of the mucosa (0-3 points), morphology of the vascular pattern (0-4 points), and the presence of fibrin (0-4 points), as previously described by Dr. D'Alessio (D'Alessio, S. et al. J. Clin. Invest. 124, 3863-3878; 2014) leading to a cumulative score between 0 (no signs of inflammation) and […] (endoscopic signs of very severe inflammation).
Histological analysis has been performed by an expert pathologist, in a blinded fashion, to grade the intestinal inflammation. More in details, colons of colitic mice in the various experimental groups have been evaluated for histological analyses using […] paraffin-embedded sections, stained with hematoxylin (Dako) and eosin (Diapath). A blinded pathologist evaluated the degree of inflammatory cell infiltration and mucosal damage, using the RACHMILEWITZ score (Table 1) (Rachmilewitz, D. et al. Gastroenterology 122, 1428-1441; 2002).

[1] = Plasma pharmacokinetics after single oral administration to mice; assay type: in vivo; conditions: male, CD1, mouse, single oral dose (Dose_PO: 10.0-90.0 mg/kg)
From the text: The purpose of this study was to evaluate plasma and tissue exposure of the following compounds after a single oral administration to mice: • 7-(3-(N-(4-fluoro-2,6-dimethylphenyl)sulfamoyl)phenyl)heptanoic acid (indicated below as DFL23806), • 7-(3-(N-(4-chloro-2,6-dimethylphenyl)sulfamoyl)phenyl)heptanoic acid (indicated below as DFL23914) • 7-(3-(N-(2,6-dimethyl-4-(trifluoromethyl)phenyl)sulfamoyl)phenyl)heptanoic acid (indicated below as DFL23922) • 7-(3-(N-(6-fluoro-4-methyl-[1,1′-biphenyl]-3-yl)sulfamoyl)phenyl)heptanoic acid (indicated below as DFL23916) • 7-(3-(N-(5-fluoro-3-methyl-[1,1′-biphenyl]-2-yl)sulfamoyl)phenyl)heptanoic acid (indicated below as DFL23917) • 7-(3-{[4-fluoro-2-methyl-5-(thiophen-2-yl)phenyl]sulfamoyl}phenyl)heptanoic acid (indicated below as DFL24102) […]
A retro-orbital, composite blood sampling at pre-dose or after dosing at 30 min, 1, 2, 6, 8 and 24 hours (three mice/time point) was carried out for the plasma pharmacokinetic assessment. Blood samples were collected in heparinized collection tubes. Samples were taken immediately onto ice and kept cool until centrifugation (10000 g for 3 minutes at about +4° C.). About 50 μL of plasma were stored in a freezer at −80° C. pending analysis.
After samples collection, bioanalysis for concentrations of the test compounds were done using HPLC-MS/MS methods and pharmacokinetic analysis of the compounds in plasma and tissues was performed according to standard non-compartmental approach using Watson system (v 7.6, Thermo Fisher Scientific Waltham, MA, USA) on mean concentration data.

human GPR120 = molecular target: T1, human GPR120 (Homo sapiens, UniProt Q5NUL3); assay: Internalization of GPR120 (Enzyme Fragment Complementation, DiscoverX); assay type: cell-based; conditions: at 100 μM
T1 sequence (Q5NUL3 1-361): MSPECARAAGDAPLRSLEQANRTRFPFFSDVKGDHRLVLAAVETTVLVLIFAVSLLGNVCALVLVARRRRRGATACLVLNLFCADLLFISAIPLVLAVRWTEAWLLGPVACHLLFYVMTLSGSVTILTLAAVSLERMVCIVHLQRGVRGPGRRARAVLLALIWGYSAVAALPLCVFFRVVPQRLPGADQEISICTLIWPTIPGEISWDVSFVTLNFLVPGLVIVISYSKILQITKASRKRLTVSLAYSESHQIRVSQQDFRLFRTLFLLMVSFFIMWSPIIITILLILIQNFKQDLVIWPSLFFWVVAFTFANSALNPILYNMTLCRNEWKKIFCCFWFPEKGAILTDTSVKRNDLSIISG

[2] = DFL23806 90 mg/kg oral once a day, versus DSS and DSS+Vehicle groups, already at day 7
[3] = colon, day 39, DFL 90 mg/kg, 5-ASA 60 mg/kg, compared with DSS+Vehicle
[4] = day 39, DFL23806 90 mg/kg, 5-ASA 60 mg/kg oral once a day, compared to DSS and DSS+Vehicle

Cc1cc(F)cc(C)c1NS(=O)(=O)c1cccc(CCCCCCC(=O)O)c1 [DFL23806, 7-(3-(N-(4-fluoro-2,6-dimethylphenyl)sulfamoyl)phenyl)heptanoic acid]
DAI (Disease Activity Index) score (DSS-induced colitis; [2]): significant effect versus the controls
percentage of body weight loss (DSS-induced colitis; [2]): significant effect versus the controls
body weight loss / DAI compared with 5-ASA (DSS-induced colitis; DFL23806 90 mg/kg versus 5-ASA 60 mg/kg, at certain time points): even more effective than 5-ASA
histological score (Rachmilewitz) for extent of flogosis (DSS-induced colitis; [3]): significantly reduced the histological score
histological score (Rachmilewitz) for extent of ulceration (DSS-induced colitis; [3]): significantly reduced the histological score
histological score (Rachmilewitz) for flogosis (DSS-induced colitis; [3]): significantly reduced the histological score
histological score (Rachmilewitz) for ulceration (DSS-induced colitis; [3]): significantly reduced the histological score
composite endoscopic score (DSS-induced colitis; [4]): significantly inhibit chronic experimental colitis
endoscopic score: colon thickness (DSS-induced colitis; [4]): significantly inhibit chronic experimental colitis
endoscopic score: mucosal surface granularity (DSS-induced colitis; [4]): significantly inhibit chronic experimental colitis
endoscopic score: vascular pattern (DSS-induced colitis; [4]): significantly inhibit chronic experimental colitis
endoscopic score: visible fibrin (DSS-induced colitis; [4]): significantly inhibit chronic experimental colitis
colon length (DSS-induced colitis; day 39, DFL23806 90 mg/kg, 5-ASA 60 mg/kg oral once a day, compared to DSS+vehicle): significant inhibitory effect
AUC(0-inf) [1]: 405 ng·h/mL
AUC(0-t) [1]: 354 ng·h/mL
Cmax [1]: 106 ng/mL
Tmax [1]: 0.5 h
half-life [1]: 5.8 h
efficacy of internalization of the human GPR120 receptor (human GPR120): 59.1%
